From US8318769B2, “Substituted sulfonamide compounds” (Gruenethal GmbH, priority 2008, dated 2012)

What follows are compounds tested against T1, bradykinin 1 receptor (B1R) of the rat (Rattus norvegicus, UniProt P97583) (assay: FLIPR Ca2+ assay, B1R antagonism, rat). Settings: 10 μM test substance; CHO K1 cells with rat B1R gene (rB1R cells); Des-Arg9-bradykinin at EC80; % inhibition compared with the maximum achievable inhibition.
T1 construct: expressed in transfected cells
T1 sequence (P97583 1-337): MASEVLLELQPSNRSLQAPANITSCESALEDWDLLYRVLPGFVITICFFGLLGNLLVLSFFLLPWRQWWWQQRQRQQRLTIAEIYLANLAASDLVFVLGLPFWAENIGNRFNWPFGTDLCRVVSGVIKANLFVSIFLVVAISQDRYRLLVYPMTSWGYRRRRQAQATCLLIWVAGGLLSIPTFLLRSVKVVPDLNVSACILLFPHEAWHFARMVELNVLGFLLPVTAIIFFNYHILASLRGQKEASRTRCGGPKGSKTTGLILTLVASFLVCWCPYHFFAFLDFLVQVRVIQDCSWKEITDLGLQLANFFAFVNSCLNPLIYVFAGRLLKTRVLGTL
Assay type: cell-based
Protocol: The agonistic or antagonistic action of substances can be quantified on the bradykinin 1 receptor (B1R) of the human and rat species with ectopically expressing cell lines (CHO K1 cells) and with the aid of a Ca^2+-sensitive dyestuff (Fluo-4) in a fluorescent imaging plate reader (FLIPR). The figure in % activation is based on the Ca^2+ signal after addition of Lys-Des-Arg^9-bradykinin (0.5 nM) or Des-Arg^9-bradykinin (100 nM). Antagonists lead to a suppression of the Ca^2+ inflow after addition of the agonist. % inhibition compared with the maximum achievable inhibition is stated.
The agonistic or antagonistic action of substances can be determined on the bradykinin 1 receptor (B1R) of the human and rat species with the following assay. In accordance with this assay, the Ca^2+ inflow through the channel is quantified with the aid of a Ca^2+-sensitive dyestuff (type Fluo-4, Molecular Probes Europe BV, Leiden, Holland) in a fluorescent imaging plate reader (FLIPR, Molecular Devices, Sunnyvale, USA).
Chinese hamster ovary cells (CHO K1 cells) transfected stably with the human B1R gene (hB1R cells) or the B1R gene of the rat (rB1R cells) are used. For functional studies, these cells are plated out on black 96-well plates with a clear base (BD Biosciences, Heidelberg, Germany or Greiner, Frickenhausen, Germany) in a density of 20,000-35,000 cells/well. The cells are left overnight at 37° C. and 5% CO2 in culture medium (hB1R cells: Nutrient Mixture Ham's F12, Gibco Invitrogen GmbH, Karlsruhe, Germany or DMEM, Sigma-Aldrich, Taufkirchen, Germany; rB1R cells: D-MEM/F12, Gibco Invitrogen GmbH, Karlsruhe, Germany) with 10 vol. % FBS (foetal bovine serum, Gibco Invitrogen GmbH, Karlsruhe, Germany or PAN Biotech GmbH, Aidenbach, Germany).
On the following day, the cells are loaded for 60 min at 37° C. with 2.13 μM Fluo-4 (Molecular Probes Europe BV, Leiden, Holland) in HBSS buffer (Hank's buffered saline solution, Gibco Invitrogen GmbH, Karlsruhe, Germany) with 2.5 mM probenecid (Sigma-Aldrich, Taufkirchen, Germany) and 10 mM HEPES (Sigma-Aldrich, Taufkirchen, Germany). The plates are then washed 2× with HBSS buffer, and HBSS buffer which additionally contains 0.1% BSA (bovine serum albumin; Sigma-Aldrich, Taufkirchen, Germany), 5.6 mM glucose and 0.05% gelatine (Merck KGaA, Darmstadt, Germany) is added. After a further incubation of 20 minutes at room temperature, the plates are inserted into the FLIPR for the Ca^2+ measurement.
Alternatively, the plates are washed with buffer A (15 mM HEPES, 80 mM NaCl, 5 mM KCl, 1.2 mM CaCl2, 0.7 mM MgSO4, 2 g/l glucose, 2.5 mM probenecid), buffer A is added and the plates are loaded with 2.5 μM Fluo-4 and 0.025% Pluronic F127 (Sigma-Aldrich, Taufkirchen, Germany). Thereafter, the cells are washed 2× with buffer A and incubated for 30 minutes with buffer A, which additionally contains 0.05% BSA and 0.05% gelatine, at room temperature and thereafter inserted into the FLIPR for the Ca^2+ measurement.
The Ca^2+-dependent fluorescence is measured here before and after addition of substances (λex=488 nm, λem=540 nm). Quantification is by measurement of the highest fluorescence intensity (FC, fluorescence counts) over time.
The FLIPR protocol consists of 2 additions of substance. Test substances (10 μM) are first pipetted on to the cells and the Ca^2+ inflow is compared with the control (hB1R: Lys-Des-Arg^9-bradykinin >=50 nM; rB1R: Des-Arg^9-bradykinin 10 μM). This gives the figure in % activation based on the Ca^2+ signal after addition of Lys-Des-Arg^9-bradykinin (>=50 nM) or Des-Arg^9-bradykinin (10 μM).
After incubation for 10-20 minutes, Lys-Des-Arg^9-bradykinin (hB1R) or Des-Arg^9-bradykinin (rB1R) in the concentration of the EC80 is applied and the inflow of Ca^2+ is likewise determined. Antagonists lead to a suppression of the Ca^2+ inflow. % inhibition compared with the maximum achievable inhibition is calculated. […]

Row | B1R antagonism, rat [10 μM] % inhibition [%] | Compound
1 | 75 | 1-[4-pyridin-3-yl-4-(2-pyrrolidin-1-yl-ethoxy)-piperidin-1-yl]-2-[[4-[[2-(trifluoromethyl)-phenyl]sulfonyl]-3,4-dihydro-2H-[1,4]benzoxazin-3-yl]-methoxy]-ethanone [Example 110]

Same assay, conditions: CHO-K1, 10 μM test substance; CHO K1 cells with rat B1R gene (rB1R cells); Des-Arg9-bradykinin at EC80; % inhibition compared with the maximum achievable inhibition; read-out: B1R antagonism, rat [10 μM] % inhibition

Row | inhibition at 10 µM [%] | Compound
2 | 101 | O=C(COCC1COc2ccccc2N1S(=O)(=O)c1ccccc1C(F)(F)F)N1CCC(OCCN2CCCC2)(c2cccc(F)c2)CC1 (centres unmarked) [Example 111, 1-[4-(3-fluorophenyl)-4-(2-pyrrolidin-1-yl-ethoxy)-piperidin-1-yl]-2-[[4-[[2-(trifluoromethyl)-phenyl]sulfonyl]-3,4-dihydro-2H-[1,4]benzoxazin-3-yl]-methoxy]-ethanone]
3 | 100 | O=C(CC1CCCCN1S(=O)(=O)c1cccc(C(F)(F)F)c1)N1CCC(OCCN2CCCC2)(c2ccc(C(F)(F)F)cc2)CC1 (centres unmarked) [Example 73, 1-[4-(2-pyrrolidin-1-yl-ethoxy)-4-[4-(trifluoromethyl)-phenyl]-piperidin-1-yl]-2-[1-[[3-(trifluoromethyl)phenyl]sulfonyl]-piperidin-2-yl]-ethanone]
4 | 101 | O=C(CCCC1CCCCN1S(=O)(=O)c1cccc2ccccc12)N1CCC(OCCN2CCCC2)(c2cccc(F)c2)CC1 (centres unmarked) [Example 93, 1-[4-(3-fluorophenyl)-4-(2-pyrrolidin-1-yl-ethoxy)-piperidin-1-yl]-4-[1-(naphthalen-1-ylsulfonyl)-piperidin-2-yl]-butan-1-one]
5 | 100 | COc1cc(C)c(S(=O)(=O)N2CCCCC2CCCC(=O)N2CCC(OCCN3CCCC3)(c3ccc(C(F)(F)F)cc3)CC2)c(C)c1 (centres unmarked) [Example 79, 4-[1-[(4-methoxy-2,6-dimethyl-phenyl)sulfonyl]-piperidin-2-yl]-1-[4-(2-pyrrolidin-1-yl-ethoxy)-4-[4-(trifluoromethyl)-phenyl]-piperidin-1-yl]-butan-1-one]
6 | 99 | COc1cc(C)c(S(=O)(=O)N2CCCCC2CCOCC(=O)N2CCC(OCCN3CCCC3)(c3cccc(F)c3)CC2)c(C)c1 (centres unmarked) [Example 125, 1-[4-(3-fluorophenyl)-4-(2-pyrrolidin-1-yl-ethoxy)-piperidin-1-yl]-2-[2-[1-[(4-methoxy-2,6-dimethyl-phenyl)sulfonyl]-piperidin-2-yl]-ethoxy]-ethanone]
7 | 93 | Cc1cccc(Cl)c1S(=O)(=O)N1CCCCC1COCC(=O)N1CCC(OCCN2CCCC2)(c2ccc(F)cc2)CC1 (centres unmarked) [Example 68, 2-[[1-[(2-chloro-6-methyl-phenyl)sulfonyl]-piperidin-2-yl]-methoxy]-1-[4-(4-fluorophenyl)-4-(2-pyrrolidin-1-yl-ethoxy)-piperidin-1-yl]-ethanone]
8 | 97 | COc1cc(C)c(S(=O)(=O)N(CCOCC(=O)N2CCC(OCCN3CCCC3)(c3ccc(F)cc3)CC2)C2CC2)c(C)c1 [Example 66, N-cyclopropyl-N-[2-[2-[4-(4-fluorophenyl)-4-(2-pyrrolidin-1-yl-ethoxy)-piperidin-1-yl]-2-oxo-ethoxy]-ethyl]-4-methoxy-2,6-dimethyl-benzenesulfonic acid amide]
9 | 100 | CS(=O)(=O)N(CCOCC(=O)N1CCC(OCCN2CCCC2)(c2cccnc2)CC1)C(c1ccccc1)c1ccccc1 [Example 104, N-benzhydryl-N-[2-[2-oxo-2-[4-pyridin-3-yl-4-(2-pyrrolidin-1-yl-ethoxy)-piperidin-1-yl]-ethoxy]-ethyl]-methanesulfonic acid amide]
10 | 98 | COc1cc(C)c(S(=O)(=O)N2CCCCC2COCC(=O)N2CCC(OCCN3CCCC3)(c3ccc(F)cc3)CC2)c(C)c1 (centres unmarked) [Example 64, 1-[4-(4-fluorophenyl)-4-(2-pyrrolidin-1-yl-ethoxy)-piperidin-1-yl]-2-[[1-[(4-methoxy-2,6-dimethyl-phenyl)sulfonyl]-piperidin-2-yl]-methoxy]-ethanone]
11 | 95 | COc1cc(C)c(S(=O)(=O)N2CCCCC2CCCC(=O)N2CCC(OCCN3CCCC3)(c3ccc(F)cc3)CC2)c(C)c1 (centres unmarked) [Example 78, 1-[4-(4-fluorophenyl)-4-(2-pyrrolidin-1-yl-ethoxy)-piperidin-1-yl]-4-[1-[(4-methoxy-2,6-dimethyl-phenyl)sulfonyl]-piperidin-2-yl]-butan-1-one]
12 | 92 | Cc1cc(S(=O)(=O)N2CCCCC2CCC(=O)N2CCC(OCCN3CCCC3)(c3ccc(F)cc3)CC2)c(C)cc1Cl (centres unmarked) [Example 74, 3-[1-[(4-chloro-2,5-dimethyl-phenyl)sulfonyl]-piperidin-2-yl]-1-[4-(4-fluorophenyl)-4-(2-pyrrolidin-1-yl-ethoxy)-piperidin-1-yl]-propan-1-one]
13 | 95 | O=C(CCCC1CCCCN1S(=O)(=O)c1cccc2ccccc12)N1CCC(OCCN2CCCC2)(c2cccnc2)CC1 (centres unmarked) [Example 92, 4-[1-(naphthalen-1-ylsulfonyl)-piperidin-2-yl]-1-[4-pyridin-3-yl-4-(2-pyrrolidin-1-yl-ethoxy)-piperidin-1-yl]-butan-1-one]
14 | 59 | O=C(CCCC1CCCCN1S(=O)(=O)c1cccc2ccccc12)N1CCC(OCCN2CCCC2)(c2ccncc2)CC1 (centres unmarked) [Example 94, 4-[1-(naphthalen-1-ylsulfonyl)-piperidin-2-yl]-1-[4-pyridin-4-yl-4-(2-pyrrolidin-1-yl-ethoxy)-piperidin-1-yl]-butan-1-one]
15 | 62 | O=C(CC1CCCCN1S(=O)(=O)c1cccc(C(F)(F)F)c1)N1CCC(OCCN2CCCC2)(c2ccc(F)cc2)CC1 (centres unmarked) [Example 72, 1-[4-(4-fluorophenyl)-4-(2-pyrrolidin-1-yl-ethoxy)-piperidin-1-yl]-2-[1-[[3-(trifluoromethyl)phenyl]sulfonyl]-piperidin-2-yl]-ethanone]
16 | 41 | O=C(CC1COc2ccccc2N1S(=O)(=O)c1ccc(Cl)cc1Cl)N1CCC(OCCN2CCCC2)(c2cccc(F)c2)CC1 (centres unmarked) [Example 128, 2-[4-[(2,4-dichlorophenyl)sulfonyl]-3,4-dihydro-2H-[1,4]benzoxazin-3-yl]-1-[4-(3-fluorophenyl)-4-(2-pyrrolidin-1-yl-ethoxy)-piperidin-1-yl]-ethanone]
17 | 99 | CS(=O)(=O)N(CCOCC(=O)N1CCC(OCCN2CCCC2)(c2cccc(F)c2)CC1)C(c1ccccc1)c1ccccc1 [Example 105, N-benzhydryl-N-[2-[2-[4-(3-fluorophenyl)-4-(2-pyrrolidin-1-yl-ethoxy)-piperidin-1-yl]-2-oxo-ethoxy]-ethyl]-methanesulfonic acid amide]
